Patent US9487508B2, “SGC stimulators” (IRONWOOD PHARMACEUTICALS, INC., priority 2012, dated 2016)

Molecular target: T1, Human soluble guanylate cyclase enzyme (hsGC) (Homo sapiens, UniProt Q02108+Q02153)
T1 construct: purchased Enzo Inc. ALX-201-177
T1 sequence (Q02153 1-619): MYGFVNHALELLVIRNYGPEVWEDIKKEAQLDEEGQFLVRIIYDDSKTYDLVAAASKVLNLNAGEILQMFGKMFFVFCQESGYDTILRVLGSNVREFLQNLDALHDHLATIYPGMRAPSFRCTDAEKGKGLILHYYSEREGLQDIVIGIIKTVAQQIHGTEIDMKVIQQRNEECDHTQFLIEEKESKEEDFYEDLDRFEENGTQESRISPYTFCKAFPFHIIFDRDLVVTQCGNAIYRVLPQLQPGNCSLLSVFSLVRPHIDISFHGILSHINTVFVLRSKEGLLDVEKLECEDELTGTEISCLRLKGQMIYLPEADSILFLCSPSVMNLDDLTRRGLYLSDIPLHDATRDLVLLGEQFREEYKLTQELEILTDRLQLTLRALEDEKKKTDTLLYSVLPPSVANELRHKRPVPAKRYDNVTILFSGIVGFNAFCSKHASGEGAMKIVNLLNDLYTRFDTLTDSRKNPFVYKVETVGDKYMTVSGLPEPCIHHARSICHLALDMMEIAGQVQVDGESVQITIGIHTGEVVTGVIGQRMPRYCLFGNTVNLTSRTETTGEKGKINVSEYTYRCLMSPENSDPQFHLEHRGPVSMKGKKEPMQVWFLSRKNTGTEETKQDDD
T1 sequence (Q02108 1-690): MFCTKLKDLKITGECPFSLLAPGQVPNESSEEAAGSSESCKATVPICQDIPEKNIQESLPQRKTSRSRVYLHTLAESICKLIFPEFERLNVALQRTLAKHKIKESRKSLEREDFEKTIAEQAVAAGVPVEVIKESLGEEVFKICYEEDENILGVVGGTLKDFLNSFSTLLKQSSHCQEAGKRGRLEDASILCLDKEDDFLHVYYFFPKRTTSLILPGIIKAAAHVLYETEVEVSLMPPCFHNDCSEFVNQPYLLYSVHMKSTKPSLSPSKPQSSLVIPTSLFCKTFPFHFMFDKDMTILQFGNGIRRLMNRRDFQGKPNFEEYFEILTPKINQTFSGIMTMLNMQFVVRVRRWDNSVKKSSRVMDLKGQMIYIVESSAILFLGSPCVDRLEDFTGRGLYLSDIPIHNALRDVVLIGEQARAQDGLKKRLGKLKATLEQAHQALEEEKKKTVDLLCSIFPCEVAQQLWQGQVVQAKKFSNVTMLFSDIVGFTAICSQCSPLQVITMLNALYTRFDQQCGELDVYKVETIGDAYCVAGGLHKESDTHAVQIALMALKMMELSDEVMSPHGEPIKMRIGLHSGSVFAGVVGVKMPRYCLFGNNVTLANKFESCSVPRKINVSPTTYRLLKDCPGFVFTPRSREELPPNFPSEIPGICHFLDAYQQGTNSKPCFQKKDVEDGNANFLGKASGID
Assay: Purified human sGC enzyme synergy assay in the presence of sodium nitroprusside (SNP)
Assay type: biochemical
Conditions: 30 μM compound, 1 μM SNP; fold change of specific activity vs DMSO control
Protocol: Human soluble guanylate cyclase enzyme (hsGC) obtained from Enzo Inc. (P/N: ALX-201-177) was used to evaluate the activity of test compounds. The assay reactions contained 0.1 M Tris (pH 8.0), 0.5 mg/mL BSA (pH 8.0), 2 mM DTT, 2 mM MgCl2, 300 μM GTP, 1 mM 3-isobutyl-1-methylxanthine (IBMX) and 5 ng human soluble guanylate cyclase enzyme. Test compounds in DMSO were then added (2 μL, 10 or 30 μM final concentration) and incubated (water, 200 μL, 96-well plate format) at 37° C. for 30 minutes. The controls were carried out using 2 μL DMSO. After the 30 minute incubation, the reaction was stopped with the addition of 200 μL of cold methanol. The plate was then centrifuged at 3,200 rpm for 10 minutes at room temperature. Supernatants (200 μL) were collected and transferred to a new 96 well plate for analysis by HPLC LC/MS/MS.
An 8 point cGMP (Sigma-Aldrich P/N: G6129) standard curve was prepared in assay buffer ranging from 0.156-20 μM. Samples for the cGMP standard curve were then diluted with an equal volume of methanol resulting in final cGMP concentrations of 0.078-10 μM.
The cGMP standard curve was generated using GraphPad Prism Software.
Calculations: Specific Activity was determined by the amount of cGMP formed (nmoles) per mg of sGC per min. Enzyme “fold-change” was calculated by dividing Specific Activity for test compounds by Specific Activity of DMSO controls. […]

In the case of `Nc1ccnc(-n2cc(-c3ncco3)c(Cc3ccccc3F)n2)n1` [Compound I-2], the “Enzyme Activity (increase at 30 μM with SNP)” value is reported as “D (D = 10 or <20 fold increase)”.
